According to paper PMC8110578, “Phenylethynylbenzyl-modified biguanides inhibit pancreatic cancer tumor growth” (Scientific Reports, 2021):
Where “and” joins values, the source holds several entries; their conditions need not be identical. Equal values may be shown once.

Columns and labels:
[1] = U-tube experiment (partition across a bulk hydrophobic solvent); type: physicochemical; conditions: 250 µM on cis side; for Crossing to the trans-aqueous side of the U-tube (in words): up to 72 h; for Trans-side concentration, mean / Trans-side concentration, single replicates: 25°C
Method: Figure 2 (A) Partition of compounds in an U-tube experiment. Concentration of biguanide on the trans-side of the U-tube at 48 h and 72 h at 25 °C, after addition of 250 µM of biguanide on the cis-side. (B) Variation in the internal pH of HPTS-containing EYPC liposomes. Intravesicular solution: 1 mM HPTS, 10 mM HEPES, and 100 mM NaCl, adjusted to pH = 7.4, and extravesicular solution: 10 mM HEPES and 100 mM NaCl, adjusted to pH = 7.4. Biguanidiums were injected after 50 s at 5 mM (50 mol% relative to the 10 mM EYPC concentration), a NaOH pulse was induced at 300 s, and the liposomes were lysed with Triton-X at 550 s. Each curve is the average of three independent measurements. (C) Fluorescence of safranin O in the EYPC liposomes. Biguanidium salts were injected at 5 mM (50 mol% relative to the 10 mM EYPC concentration) at 50 s. Each curve is the average of three independent measurements. […] Mitochondrial isolation was performed according to the previously reported protocol.
Experimental. U-tube experiment was prepared by adding 800 µL of dichloromethane in a U-shaped tube as a representation of the hydrophobic lipid membrane. On the receiving end (trans side) of the tube was added 300 µL of distilled water while the other side (cis side) was filled with 300 µL of a 250 µM solution of the compound of interest at 25°C. At 48h and 72h, 100 µL aliquot of the trans side was diluted in 900 µL methanol and monitored by LCMS (292 m/z). Area under curve (AUC) was measured and fitted on a calibration curve.

KP4 cells = experiment: Seahorse analysis of OCR and ECAR, KP4 cells; type: cell-based, human; conditions: 1b 15 µM; for Effect on ECAR (extracellular acidification rate): metformin; for Effect on oxygen consumption rate (OCR): metformin 5 mM
Description: Figure 3 Effects of biguanides on cell proliferation and viability in pancreatic cancer cells. […]. […] | decimal sign comma or point
Next, we used the Seahorse analyser to quantify the ability of compound 1b to affect oxygen consumption rate (OCR) in KP4 cells. […]. […] […].
All chemicals were purchased from Aldrich Chemicals in their highest purity and used without further purification. Deuterated dimethylsulfoxide (DMSO-d^6) and deuterated chloroform (CDCl3) were purchased from CDN Isotopes. NMR spectra were recorded on Bruker advance 400 and 100 spectrometers. Coupling constants are given in hertz (Hz) and chemical shifts are given in parts per million (ppm, δ) measured relative to the residual solvent (the multiplicity of the signals are given as s: singlet, d: doublet, t: triplet, and m: multiplet). High-resolution mass spectra (HRMS) were recorded on a TSQ Quantum Ultra (Thermo Scientific) triple quadrupole with accurate mass option instrument (Université de Montréal Mass Spectrometry Facility). MS experiences were performed using an UltrafleXtreme MALDI TOF/TOF mass spectrometer equipped with a SmartBeam II Nd:Yag/355 nm laser operating at 1 kHz and providing a laser focus down to 20 μm in diameter (Bruker Daltonics, Billerica, MA). The data acquisition for MS was performed in positive ion mode using the linear geometry with flexControl 3.4 (Bruker Daltonics, Billerica, MA). Acceleration voltage was set to + 25 kV and all other instrumental parameters (delayed extraction parameters, source voltages, detector gain, laser energy, etc.) were optimized for maximum S/N for the drug compounds. L-α-Phosphatidylcholine was purchased from Avanti Polar Lipids. Transport and depolarization studies as well as absorbance measurements were performed on a Varian Cary Eclipse fluorescence spectrophotometer. The hemolysis assays were performed on a Fluostar Optima plate reader. Single crystals of C18H18F3N5O3S were obtained from chloroform. A suitable crystal was selected and analysed on a Bruker Venture Metaljet diffractometer. Crystal violet retention assay was used for cell growth assays and IC50 were determined using Prism (GraphPad). NAD/NADH quantitation colorimetric kit (#K337-100) from Biovision was used according to manufacturer’s instructions. ECAR (extracellular acidification rate) and OCR of KP4 cells (oxygen consumption rate) were measured on a Seahorse XF-24 (Agilent).
Experimental. ECAR (extracellular acidification rate) and OCR of KP4 cells (oxygen consumption rate) were measured on a Seahorse XF-24 (Agilent). The day before the experiment, KP4 cells were seeded in XF24 FluxPak seahorse plates (Agilent) at a density of 40.000 cells per well, in usual KP4 culture medium (DMEM, 10% FSB). […]

Row | Structure (SMILES) | Crossing to the trans-aqueous side of the U-tube (in words) [1] | Effect on ECAR (extracellular acidification rate) (KP4 cells) | Effect on oxygen consumption rate (OCR) (KP4 cells) | Trans-side concentration, mean ([1]; 48h) | Trans-side concentration, single replicates ([1]; 48h) | Trans-side concentration, mean ([1]; 72h) | Trans-side concentration, single replicates ([1]; 72h)
1 | CN(C)C(=N)NC(=N)N [metformin, 1,1-dimethylbiguanide, reference compound] | only traces | increase of the ECAR | Inhibition of OCR | – | – | – | –
2 | N=C(N)NC(=N)NCc1ccc(C#Cc2ccccc2)cc1 [1b, 4-(phenylethynyl)benzylbiguanide] | able to partition rapidly into the chloroform and cross to the trans-aqueous side | also observed with compound 1b | inhibited OCR | 64,7 µM | 90,1 µM and 57,1 µM and 46,8 µM | 92,3 µM | 78,6 µM and 99,3 µM and 99,1 µM
